Experimental data as given in publication PMC4859512, “Polyamino-Isoprenic Derivatives Block Intrinsic Resistance of P. aeruginosa to Doxycycline and Chloramphenicol In Vitro” (PLoS ONE, 2016).

Tested on: P. aeruginosa PA01
Test: Checkerboard assay with doxycycline
Assay type: cell-based, Pseudomonas aeruginosa
Conditions: PA01
Experimental: Serial two-fold dilutions of antimicrobial agents were mixed together in a microtiter plate. The range of concentration of each drug was twice the MIC, down to the eleventh serial two-fold dilutions below this amount. Doxycycline was serially diluted along the X-axis, and the polyamino-isoprenic compound or PAßN was diluted along the Y-axis as indicated. Each well was inoculated with a bacterial inoculum of 5 x 10^5 CFU/ml, and the plates were incubated at 37°C for 18 h under aerobic conditions. Each plate also contained a row and a column in which a serial dilution of polyamino-isoprenic compound or doxycycline, respectively, was present alone to determine the MIC. The FIC index was calculated as follows: FIC index = FIC A + FIC B, where FIC A is the MIC of drug A in the combination/MIC of drug A alone and FIC B is the MIC of drug B in the combination/MIC of drug B alone. The combination was considered synergistic when the FIC index is ≤0.5, and antagonistic when the FIC index is > 4 [26].

[1] = doxycycline MIC in the combination 0.0625 µg/ml
[2] = doxycycline MIC in the combination 0.125 µg/ml
[3] = doxycycline MIC in the combination 0.25 µg/ml
[4] = doxycycline MIC in the combination 0.5 µg/ml
[5] = doxycycline MIC in the combination 1 µg/ml
[6] = doxycycline MIC in the combination 2 µg/ml
[7] = doxycycline MIC in the combination 4 µg/ml
[8] = doxycycline MIC in the combination 8 µg/ml
[9] = doxycycline MIC in the combination 16 µg/ml

Structure (SMILES): CC(C)=CCCC(C)=CCCC(C)=CCNCCCNCCCCNCCCN [Compound 3]
- Concentration of compound associated [1]: 93.75 µM
- FIC index [1]: 1
- Concentration of compound associated [2]: 46.88 µM
- Effect [2]: Synergistic (synergistic when the FIC index is ≤0.5)
- FIC index [2]: 0.50
- Concentration of compound associated [3]: 23.44 µM
- Effect [3]: Synergistic (synergistic when the FIC index is ≤0.5)
- FIC index [3]: 0.26
- Concentration of compound associated [4]: 11.72 µM
- Effect [4]: Synergistic (synergistic when the FIC index is ≤0.5)
- FIC index [4]: 0.14
- Concentration of compound associated [5]: 5.86 µM
- Effect [5]: Synergistic (synergistic when the FIC index is ≤0.5)
- FIC index [5]: 0.09
- Concentration of compound associated [6]: 2.93 µM
- Effect [6]: Synergistic (synergistic when the FIC index is ≤0.5)
- FIC index [6]: 0.09
- Concentration of compound associated [7]: 2.93 µM
- Effect [7]: Synergistic (synergistic when the FIC index is ≤0.5)
- FIC index [7]: 0.16
- Concentration of compound associated [8]: 0.73 µM
- Effect [8]: Synergistic (synergistic when the FIC index is ≤0.5)
- FIC index [8]: 0.26
- Concentration of compound associated [9]: 0.18 µM
- Effect [9]: Synergistic (synergistic when the FIC index is ≤0.5)
- FIC index [9]: 0.50
- FIC index (combination with doxycycline): 0.09
